{"source": "patent US10131652B2", "about": "“Pyrimidinyloxy benzene derivatives as herbicides” (E. I. DU PONT DE NEMOURS AND COMPANY, priority 2014, dated 2018)", "test_in_all_cases": "Test B pre-/postemergence plant response", "format_in_all_cases": "in vivo", "key": {"[1]": {"system": "morningglory (Ipomoea spp.)", "conditions": "1000 g ai/ha, 0 to 100 scale (0 no effect, 100 complete control); for pest or weed control at 1000 g/ha: Ipomoea, 240 h, read-out: Plant response rating, Morningglory", "source_text": "(§1) Seeds of plant species selected from bamyardgrass (Echinochloa crus-galli), kochia (Kochia scoparia), ragweed (common ragweed, Ambrosia elatior), Italian ryegrass (Lolium multiflorum), large (Lg) crabgrass (Digitaria sanguinalis), giant foxtail (Setaria faberii), momingglory (Ipomoea spp.), pigweed (Amaranthus retroflexus), velvetleaf (Abutilon theophrasti), wheat (Triticum aestivum), and corn (Zea mays) were planted into a blend of loam soil and sand and treated preemergence with a directed soil spray using test chemicals formulated in a non-phytotoxic solvent mixture which included a surfactant. At the same time, plants selected from these crop and weed species and also blackgrass (Alopecurus myosuroides), and galium (catchweed bedstraw, Galium aparine) were planted in pots containing the same blend of loam soil and sand and treated with postemergence applications of test chemicals formulated in the same manner. Plants ranged in height from 2 to 10 cm and were in the one- to two-leaf stage for the postemergence treatment. Treated plants and untreated controls were maintained in a greenhouse for approximately 10 days, after which time all treated plants were compared to untreated controls and visually evaluated for injury. Plant response ratings, summarized in Table B, are based on a 0 to 100 scale where 0 is no effect and 100 is complete control. A dash (-) response means no test result."}, "[2]": {"system": "large (Lg) crabgrass (Digitaria sanguinalis)", "conditions": "1000 g ai/ha, 0 to 100 scale (0 no effect, 100 complete control); for pest or weed control at 1000 g/ha: Digitaria sanguinalis, 240 h, read-out: Plant response rating, Crabgrass, Large", "source_text": "as §1"}, "[3]": {"system": "pigweed (Amaranthus retroflexus)", "conditions": "1000 g ai/ha, 0 to 100 scale (0 no effect, 100 complete control); for pest or weed control at 1000 g/ha: Amaranthus retroflexus, 240 h, read-out: Plant response rating, Pigweed", "source_text": "as §1"}, "[4]": {"system": "barnyardgrass (Echinochloa crus-galli)", "conditions": "1000 g ai/ha, 0 to 100 scale (0 no effect, 100 complete control); for pest or weed control at 1000 g/ha: Echinochloa crus-galli, 240 h, read-out: Plant response rating, Barnyardgrass", "source_text": "as §1"}, "corn (Zea mays)": {"system": "corn (Zea mays)", "conditions": "1000 g ai/ha, 0 to 100 scale (0 no effect, 100 complete control); for Corn plant response rating (crop injury, 0 = no effect, 100 = complete kill) at 1000 g/ha: Zea mays, 240 h", "source_text": "as §1"}, "[5]": {"system": "giant foxtail (Setaria faberii)", "conditions": "1000 g ai/ha, 0 to 100 scale (0 no effect, 100 complete control); for pest or weed control at 1000 g/ha: Setaria faberi, 240 h, read-out: Plant response rating, Foxtail, Giant", "source_text": "as §1"}, "[6]": {"system": "velvetleaf (Abutilon theophrasti)", "conditions": "1000 g ai/ha, 0 to 100 scale (0 no effect, 100 complete control); for pest or weed control at 1000 g/ha: Abutilon theophrasti, 240 h, read-out: Plant response rating, Velvetleaf", "source_text": "as §1"}, "[7]": {"system": "wheat (Triticum aestivum)", "conditions": "1000 g ai/ha, 0 to 100 scale (0 no effect, 100 complete control); for plant injury at 1000 g/ha: Triticum aestivum, 240 h, read-out: Plant response rating, Wheat", "source_text": "as §1"}}, "note": "Like-named read-outs stand apart in the source and are kept apart here."}
{"compound": "OCc1cc(-c2ccccc2Oc2ncc(Cl)cn2)no1", "note": "[Compound 31, 3-[2-[(5-chloro-2-pyrimidinyl)oxy]phenyl]-5-isoxazolemethanol]", "values": [{"measurement": "pest or weed control at 1000 g/ha", "setting": "[1]; post-emergence, Postemergence", "value": 30, "unit": "%"}, {"measurement": "pest or weed control at 1000 g/ha", "setting": "[1]; pre-emergence, Preemergence", "value": 0, "unit": "%"}, {"measurement": "pest or weed control at 1000 g/ha", "setting": "[2]; post-emergence, Postemergence", "value": 50, "unit": "%"}, {"measurement": "pest or weed control at 1000 g/ha", "setting": "[2]; pre-emergence, Preemergence", "value": 80, "unit": "%"}, {"measurement": "pest or weed control at 1000 g/ha", "setting": "[3]; post-emergence, Postemergence", "value": 30, "unit": "%"}, {"measurement": "pest or weed control at 1000 g/ha", "setting": "[3]; pre-emergence, Preemergence", "value": 0, "unit": "%"}, {"measurement": "pest or weed control at 1000 g/ha", "setting": "[4]; post-emergence, Postemergence", "value": 10, "unit": "%"}, {"measurement": "pest or weed control at 1000 g/ha", "setting": "[4]; pre-emergence, Preemergence", "value": 0, "unit": "%"}, {"measurement": "Corn plant response rating (crop injury, 0 = no effect, 100 = complete kill) at 1000 g/ha", "setting": "corn (Zea mays); post-emergence, Postemergence", "value": 0, "unit": "%"}, {"measurement": "Corn plant response rating (crop injury, 0 = no effect, 100 = complete kill) at 1000 g/ha", "setting": "corn (Zea mays); pre-emergence, Preemergence", "value": 0, "unit": "%"}, {"measurement": "pest or weed control at 1000 g/ha", "setting": "[5]; post-emergence, Postemergence", "value": 30, "unit": "%"}, {"measurement": "pest or weed control at 1000 g/ha", "setting": "[5]; pre-emergence, Preemergence", "value": 30, "unit": "%"}, {"measurement": "pest or weed control at 1000 g/ha", "setting": "[6]; post-emergence, Postemergence", "value": 30, "unit": "%"}, {"measurement": "pest or weed control at 1000 g/ha", "setting": "[6]; pre-emergence, Preemergence", "value": 0, "unit": "%"}, {"measurement": "plant injury at 1000 g/ha", "setting": "[7]; post-emergence, Postemergence", "value": 0, "unit": "%"}, {"measurement": "plant injury at 1000 g/ha", "setting": "[7]; pre-emergence, Preemergence", "value": 0, "unit": "%"}]}
{"compound": "O=Cc1cc(-c2ccccc2Oc2ncc(Cl)cn2)no1", "note": "[Compound 33, 3-[2-[(5-chloro-2-pyrimidinyl)oxy]phenyl]-5-isoxazolecarboxaldehyde]", "values": [{"measurement": "pest or weed control at 1000 g/ha", "setting": "[1]; post-emergence, Postemergence", "value": 10, "unit": "%"}, {"measurement": "pest or weed control at 1000 g/ha", "setting": "[1]; pre-emergence, Preemergence", "value": 0, "unit": "%"}, {"measurement": "pest or weed control at 1000 g/ha", "setting": "[2]; post-emergence, Postemergence", "value": 10, "unit": "%"}, {"measurement": "pest or weed control at 1000 g/ha", "setting": "[2]; pre-emergence, Preemergence", "value": 80, "unit": "%"}, {"measurement": "pest or weed control at 1000 g/ha", "setting": "[3]; post-emergence, Postemergence", "value": 10, "unit": "%"}, {"measurement": "pest or weed control at 1000 g/ha", "setting": "[3]; pre-emergence, Preemergence", "value": 40, "unit": "%"}, {"measurement": "pest or weed control at 1000 g/ha", "setting": "[4]; post-emergence, Postemergence", "value": 0, "unit": "%"}, {"measurement": "pest or weed control at 1000 g/ha", "setting": "[4]; pre-emergence, Preemergence", "value": 0, "unit": "%"}, {"measurement": "Corn plant response rating (crop injury, 0 = no effect, 100 = complete kill) at 1000 g/ha", "setting": "corn (Zea mays); post-emergence, Postemergence", "value": 0, "unit": "%"}, {"measurement": "Corn plant response rating (crop injury, 0 = no effect, 100 = complete kill) at 1000 g/ha", "setting": "corn (Zea mays); pre-emergence, Preemergence", "value": 0, "unit": "%"}, {"measurement": "pest or weed control at 1000 g/ha", "setting": "[5]; post-emergence, Postemergence", "value": 10, "unit": "%"}, {"measurement": "pest or weed control at 1000 g/ha", "setting": "[5]; pre-emergence, Preemergence", "value": 10, "unit": "%"}, {"measurement": "pest or weed control at 1000 g/ha", "setting": "[6]; post-emergence, Postemergence", "value": 0, "unit": "%"}, {"measurement": "pest or weed control at 1000 g/ha", "setting": "[6]; pre-emergence, Preemergence", "value": 0, "unit": "%"}, {"measurement": "plant injury at 1000 g/ha", "setting": "[7]; post-emergence, Postemergence", "value": 0, "unit": "%"}, {"measurement": "plant injury at 1000 g/ha", "setting": "[7]; pre-emergence, Preemergence", "value": 0, "unit": "%"}]}
{"compound": "ClCc1cc(-c2ccccc2Oc2ncc(Cl)cn2)no1", "note": "[Compound 34]", "values": [{"measurement": "Plant response rating, Morningglory", "setting": "[1]; Postemergence", "value": 0}, {"measurement": "Plant response rating, Morningglory", "setting": "[1]; Preemergence", "value": 0}, {"measurement": "Plant response rating, Crabgrass, Large", "setting": "[2]; Postemergence", "value": 10}, {"measurement": "Plant response rating, Crabgrass, Large", "setting": "[2]; Preemergence", "value": 10}, {"measurement": "Plant response rating, Pigweed", "setting": "[3]; Postemergence", "value": 40}, {"measurement": "Plant response rating, Pigweed", "setting": "[3]; Preemergence", "value": 100}, {"measurement": "Plant response rating, Barnyardgrass", "setting": "[4]; Postemergence", "value": 0}, {"measurement": "Plant response rating, Barnyardgrass", "setting": "[4]; Preemergence", "value": 0}, {"measurement": "Plant response rating, Corn", "setting": "corn (Zea mays); Postemergence", "value": 0}, {"measurement": "Plant response rating, Corn", "setting": "corn (Zea mays); Preemergence", "value": 0}, {"measurement": "Plant response rating, Foxtail, Giant", "setting": "[5]; Postemergence", "value": 0}, {"measurement": "Plant response rating, Foxtail, Giant", "setting": "[5]; Preemergence", "value": 10}, {"measurement": "Plant response rating, Velvetleaf", "setting": "[6]; Postemergence", "value": 20}, {"measurement": "Plant response rating, Velvetleaf", "setting": "[6]; Preemergence", "value": 10}, {"measurement": "Plant response rating, Wheat", "setting": "[7]; Postemergence", "value": 0}, {"measurement": "Plant response rating, Wheat", "setting": "[7]; Preemergence", "value": 0}]}
{"compound": "N#CCc1cc(-c2ccccc2Oc2ncc(Cl)cn2)no1", "note": "[Compound 36]", "values": [{"measurement": "Plant response rating, Morningglory", "setting": "[1]; Postemergence", "value": 20}, {"measurement": "Plant response rating, Morningglory", "setting": "[1]; Preemergence", "value": 10}, {"measurement": "Plant response rating, Crabgrass, Large", "setting": "[2]; Postemergence", "value": 80}, {"measurement": "Plant response rating, Crabgrass, Large", "setting": "[2]; Preemergence", "value": 100}, {"measurement": "Plant response rating, Pigweed", "setting": "[3]; Postemergence", "value": 90}, {"measurement": "Plant response rating, Pigweed", "setting": "[3]; Preemergence", "value": 100}, {"measurement": "Plant response rating, Barnyardgrass", "setting": "[4]; Postemergence", "value": 90}, {"measurement": "Plant response rating, Barnyardgrass", "setting": "[4]; Preemergence", "value": 30}, {"measurement": "Plant response rating, Corn", "setting": "corn (Zea mays); Postemergence", "value": 50}, {"measurement": "Plant response rating, Corn", "setting": "corn (Zea mays); Preemergence", "value": 0}, {"measurement": "Plant response rating, Foxtail, Giant", "setting": "[5]; Postemergence", "value": 90}, {"measurement": "Plant response rating, Foxtail, Giant", "setting": "[5]; Preemergence", "value": 90}, {"measurement": "Plant response rating, Velvetleaf", "setting": "[6]; Postemergence", "value": 100}, {"measurement": "Plant response rating, Wheat", "setting": "[7]; Postemergence", "value": 50}, {"measurement": "Plant response rating, Wheat", "setting": "[7]; Preemergence", "value": 0}]}
{"compound": "Clc1cnc(Oc2ccccc2-c2ncco2)nc1", "note": "[Compound 61]", "values": [{"measurement": "Plant response rating, Morningglory", "setting": "[1]; Postemergence", "value": 10}, {"measurement": "Plant response rating, Morningglory", "setting": "[1]; Preemergence", "value": 0}, {"measurement": "Plant response rating, Crabgrass, Large", "setting": "[2]; Postemergence", "value": 0}, {"measurement": "Plant response rating, Crabgrass, Large", "setting": "[2]; Preemergence", "value": 50}, {"measurement": "Plant response rating, Pigweed", "setting": "[3]; Postemergence", "value": 60}, {"measurement": "Plant response rating, Pigweed", "setting": "[3]; Preemergence", "value": 90}, {"measurement": "Plant response rating, Barnyardgrass", "setting": "[4]; Postemergence", "value": 10}, {"measurement": "Plant response rating, Barnyardgrass", "setting": "[4]; Preemergence", "value": 20}, {"measurement": "Plant response rating, Corn", "setting": "corn (Zea mays); Postemergence", "value": 0}, {"measurement": "Plant response rating, Corn", "setting": "corn (Zea mays); Preemergence", "value": 0}, {"measurement": "Plant response rating, Foxtail, Giant", "setting": "[5]; Postemergence", "value": 0}, {"measurement": "Plant response rating, Foxtail, Giant", "setting": "[5]; Preemergence", "value": 40}, {"measurement": "Plant response rating, Velvetleaf", "setting": "[6]; Postemergence", "value": 70}, {"measurement": "Plant response rating, Velvetleaf", "setting": "[6]; Preemergence", "value": 50}, {"measurement": "Plant response rating, Wheat", "setting": "[7]; Postemergence", "value": 0}, {"measurement": "Plant response rating, Wheat", "setting": "[7]; Preemergence", "value": 0}]}
